This passage reports IC50 results from patent US9669034B2, “4-aryl-N-phenyl-1,3,5-triazin-2-amines containing a sulfoximine group” (BAYER INTELLECTUAL PROPERTY GMBH, priority 2011, dated 2017).

Molecules are shown by their SMILES. pIC50: −log10 of the molar value. Like-named read-outs stand apart in the source and are kept apart here.

One assay deals with CDK9/CycT1 (Homo sapiens (Human), UniProt P50750). The experiment in a line: CDK9/CycT1 kinase assay (TR-FRET). As to conditions: Method 1. Format: biochemical. The essentials:
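TR-FRET read-out of kinase inhibition, with a biotin-Ttds-tagged peptide as substrate. Enzyme: human CDK9 and CycT1, full-length with His tags, produced in insect cells and purified on Ni-NTA.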

For another assay, the target named is CDK2/CycE (Homo sapiens (Human), UniProt P24941). The experiment in a line: CDK2/CycE kinase assay (TR-FRET). Format: biochemical. As to conditions: Method 2. The gist of the method:
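TR-FRET measurement of inhibition of phosphorylation of a biotinylated peptide substrate. Enzyme complex consisted of human CDK2 and CycE, each as a GST fusion made in Sf9 cells and purified over glutathione-Sepharose.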
Background: TR-FRET usually uses a lanthanide donor and a delayed reading to cut background.

The test system of assay [1] is HeLa human cervical tumour cells. Description: Proliferation assay (crystal violet), HeLa. Format: cell-based. To be noted: Method 3, read-out: Inhibition of HeLa cell proliferation, IC50. The protocol: (§1) Cultivated tumour cells (NCI-H460, human non-small cell lung carcinoma cells, ATCC HTB-177; DU145, hormone-independent human prostate carcinoma cells, ATCC HTB-81; HeLa-MaTu, human cervical carcinoma cells, EPO-GmbH, Berlin; HeLa-MaTu-ADR, multidrug-resistant human cervical carcinoma cells, EPO-GmbH, Berlin; HeLa human cervical tumour cells, ATCC CCL-2; Caco-2 human colorectal carcinoma, ATCC HTB-37; B16F10 mouse melanoma cells, ATCC CRL-6475) were plated at a density of 5000 cells/well (DU145, HeLa-MaTu-ADR), 3000 cells/well (NCI-H460, HeLa-MaTu, HeLa), 1500 cells/well (Caco-2), or 1000 cells/well (B16 F10) in a 96-well multititer plate in 200 μL of their respective growth medium supplemented 10% fetal calf serum. After 24 hours, the cells of one plate (zero-point plate) were stained with crystal violet (see below), while the medium of the other plates was replaced by fresh culture medium (200 μL), to which the test substances were added in various concentrations (0 M, as well as in the range of […]; the final concentration of the solvent dimethylsulfoxide was 0.5%). The cells were incubated for 4 days in the presence of test substances. Cell proliferation was determined by staining the cells with crystal violet: the cells were fixed by adding 20 μL/measuring point of an 11% glutaric aldehyde solution for 15 minutes at room temperature. After three washing cycles of the fixed cells with water, the plates were dried at room temperature. The cells were stained by adding 100 μL/measuring point of a 0.1% crystal violet solution (pH 3.0). After three washing cycles of the stained cells with water, the plates were dried at room temperature. The dye was dissolved by adding 100 μL/measuring point of a 10% acetic acid solution. The absorbance was determined by photometry at a wavelength of 595 nm. The change of cell number, in percent, was calculated by normalization of the measured values to the absorbance values of the zero-point plate (=0%) and the absorbance of the untreated (0 M) cells (=100%). The IC50 values were determined by means of a 4 parameter fit.

Assay [2] has as its system HeLa-MaTu-ADR, multidrug-resistant human cervical carcinoma cells. The experiment in a line: Proliferation assay (crystal violet), HeLa-MaTu-ADR. Format: cell-based. To be noted: Method 3, read-out: Inhibition of HeLa/MaTu/ADR cell proliferation, IC50. The procedure:
as §1

Assay [3] deals with NCI-H460, human non-small cell lung carcinoma cells. The experiment in a line: Proliferation assay (crystal violet), NCI-H460. Format: cell-based. To be noted: Method 3, read-out: Inhibition of NCI-H460 cell proliferation, IC50. The protocol: as §1
For assay [4], the system named is DU145, hormone-independent human prostate carcinoma cells. Description: Proliferation assay (crystal violet), DU145. Format: cell-based. To be noted: Method 3, read-out: Inhibition of DU145 cell proliferation, IC50. The protocol:
as §1

Assay [5] has as its system Caco-2 human colorectal carcinoma. The experiment in a line: Proliferation assay (crystal violet), Caco-2. Format: cell-based. To be noted: Method 3, read-out: Inhibition of Caco-2 cell proliferation, IC50. The protocol: as §1
The test system of assay [6] is B16F10 mouse melanoma cells. The experiment in a line: Proliferation assay (crystal violet), B16F10. Format: cell-based. To be noted: Method 3, read-out: Inhibition of B16F10 cell proliferation, IC50. The procedure: as §1
The mark [7] stands for this setting: Homo sapiens, NCI-H460, NCI-H460 cells.
Where [8] appears, read: Homo sapiens, DU-145, DU145 cells.
Where [9] appears, read: Homo sapiens, Caco-2, Caco-2 cells.
The mark [10] stands for this setting: Mus musculus, B16-F10, B16F10 cells.

Chain of CDK9/CycT1 (P50750 whole entry): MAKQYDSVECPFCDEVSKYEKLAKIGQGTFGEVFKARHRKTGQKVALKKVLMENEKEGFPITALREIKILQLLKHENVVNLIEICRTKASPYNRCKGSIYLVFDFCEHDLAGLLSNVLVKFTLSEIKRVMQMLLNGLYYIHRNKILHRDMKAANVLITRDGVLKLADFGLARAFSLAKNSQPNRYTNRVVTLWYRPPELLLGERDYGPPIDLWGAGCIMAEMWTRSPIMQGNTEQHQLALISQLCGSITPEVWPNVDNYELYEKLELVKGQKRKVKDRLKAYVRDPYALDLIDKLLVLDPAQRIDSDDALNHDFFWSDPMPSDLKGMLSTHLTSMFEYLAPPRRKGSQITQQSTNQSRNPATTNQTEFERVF
Chain of CDK9/CycT1 (O60563 whole entry partner): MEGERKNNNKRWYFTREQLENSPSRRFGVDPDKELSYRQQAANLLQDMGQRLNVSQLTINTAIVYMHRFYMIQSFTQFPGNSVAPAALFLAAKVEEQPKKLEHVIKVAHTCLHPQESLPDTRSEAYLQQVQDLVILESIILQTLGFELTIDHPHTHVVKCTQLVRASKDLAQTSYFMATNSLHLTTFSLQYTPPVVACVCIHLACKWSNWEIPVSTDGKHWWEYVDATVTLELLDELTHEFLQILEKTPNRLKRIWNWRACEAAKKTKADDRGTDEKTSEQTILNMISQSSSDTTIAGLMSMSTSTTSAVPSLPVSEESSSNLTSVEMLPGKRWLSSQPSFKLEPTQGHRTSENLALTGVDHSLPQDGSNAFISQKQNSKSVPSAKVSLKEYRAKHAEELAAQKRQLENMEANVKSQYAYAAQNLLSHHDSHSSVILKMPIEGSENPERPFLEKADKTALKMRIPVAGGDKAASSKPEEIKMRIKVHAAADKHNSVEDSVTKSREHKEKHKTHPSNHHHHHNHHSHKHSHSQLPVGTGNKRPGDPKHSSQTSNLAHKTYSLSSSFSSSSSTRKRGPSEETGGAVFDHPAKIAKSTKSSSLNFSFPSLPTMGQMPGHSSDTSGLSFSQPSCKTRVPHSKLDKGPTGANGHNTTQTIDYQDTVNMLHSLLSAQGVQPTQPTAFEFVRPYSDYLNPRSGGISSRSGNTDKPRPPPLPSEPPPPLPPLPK

Consider `COc1cc(F)ccc1-c1ncnc(Nc2cc(Cl)cc(CS(C)(=N)=O)c2)n1` (racemic) [Example 64, (rac)-N-{3-Chloro-5-[(S-methylsulfonimidoyl)methyl]phenyl}-4-(4-fluoro-2-methoxyphenyl)-1,3,5-triazin-2-amine], for which the pIC50 is 7.82 on CDK9/CycT1; 6.60 against CDK2/CycE; 6.40 in assay [1] (Homo sapiens, HeLa); 6.55 in assay [2] (Homo sapiens, HeLa); 6.44 in assay [3] (setting [7]); 6.54 in assay [4] (setting [8]). The pIC50 was 6.46 in assay [5] (setting [9]) and 6.49 in assay [6] (setting [10]).

On to `COc1cc(F)ccc1-c1ncnc(Nc2cc(F)cc(CS(C)(=O)=NC#N)c2)n1` (racemic) [Example 70, (rac)-[(3-Fluoro-5-{[4-(4-fluoro-2-methoxyphenyl)-1,3,5-triazin-2-yl]amino}benzyl)(methyl)oxido-λ^6-sulfanylidene]cyanamide], for which the pIC50 at CDK9/CycT1 is 8.22; against CDK2/CycE, 6.74; in assay [1] (Homo sapiens, HeLa), 6.82; in assay [2] (Homo sapiens, HeLa), 6.92; in assay [3] (setting [7]), 6.64; in assay [4] (setting [8]) it was 7.10. In addition, the pIC50 is 6.77 in assay [5] (setting [9]) and 6.89 in assay [6] (setting [10]).

As to `C/C=C\COc1cc(F)ccc1-c1ncnc(Nc2cccc(CS(C)(=N)=O)c2)n1` (racemic) [Example 102, (rac)-4-{2-[(2Z)-But-2-en-1-yloxy]-4-fluorophenyl}-N-{3-[(S-methylsulfonimidoyl)methyl]phenyl}-1,3,5-triazin-2-amine], the pIC50 was 8.15 against CDK9/CycT1; 6.10 against CDK2/CycE; 6.47 in assay [1] (Homo sapiens, HeLa); 6.85 in assay [2] (Homo sapiens, HeLa); 6.82 in assay [3] (setting [7]); 7.02 in assay [4] (setting [8]). Further, the pIC50 in assay [5] (setting [9]) is 6.80; in assay [6] (setting [10]), 6.85.

Consider `CS(=N)(=O)Cc1cccc(Nc2ncnc(-c3ccc(F)cc3OCc3cccc(F)c3)n2)c1` (racemic) [Example 90, (rac)-4-{4-Fluoro-2-[(3-fluorobenzyl)oxy]phenyl}-N-{3-[(S-methylsulfonimidoyl)methyl]phenyl}-1,3,5-triazin-2-amine], for which the pIC50 is 8.70 against CDK9/CycT1; 6.59 at CDK2/CycE; 6.77 in assay [1] (Homo sapiens, HeLa); 7.00 in assay [2] (Homo sapiens, HeLa); 6.96 in assay [3] (setting [7]); 6.96 in assay [4] (setting [8]). Moreover, the pIC50 was 7.10 in assay [5] (setting [9]) and 7.00 in assay [6] (setting [10]).

On to `CS(=N)(=O)Cc1cccc(Nc2ncnc(-c3ccc(F)cc3OCc3cc(F)cc(C(F)(F)F)c3)n2)c1` (racemic) [Example 89, (rac)-4-(4-Fluoro-2-{[3-fluoro-5-(trifluoromethyl)benzyl]oxy}phenyl)-N-{3-[(S-methylsulfonimidoyl)methyl]phenyl}-1,3,5-triazin-2-amine], for which the pIC50 is 8.40 at CDK9/CycT1; 6.55 at CDK2/CycE; 6.33 in assay [1] (Homo sapiens, HeLa); 6.35 in assay [2] (Homo sapiens, HeLa); 6.43 in assay [3] (setting [7]); 6.38 in assay [4] (setting [8]). The pIC50 in assay [5] (setting [9]) was 6.28; in assay [6] (setting [10]), 6.33.

As to `CS(=N)(=O)Cc1cccc(Nc2ncnc(-c3ccc(F)cc3OCc3cc(F)cc(F)c3F)n2)c1` (racemic) [Example 101, (rac)-4-{4-Fluoro-2-[(2,3,5-trifluorobenzyl)oxy]phenyl}-N-{3-[(S-methylsulfonimidoyl)methyl]phenyl}-1,3,5-triazin-2-amine], the pIC50 was 8.40 on CDK9/CycT1; 6.30 against CDK2/CycE; 6.48 in assay [1] (Homo sapiens, HeLa); 6.46 in assay [2] (Homo sapiens, HeLa); 6.44 in assay [3] (setting [7]); 6.47 in assay [4] (setting [8]). Further, the pIC50 in assay [5] (setting [9]) was 6.62; in assay [6] (setting [10]) it was 6.47.

As to `CCOC(=O)N=S(C)(=O)Cc1cccc(Nc2ncnc(-c3ccccc3OCc3ccc(F)cc3)n2)c1` (racemic) [Example 42, (rac)-Ethyl [{3-[(4-{2-[(4-fluorobenzyl)oxy]phenyl}-1,3,5-triazin-2-yl)amino]benzyl}(methyl)oxido-λ^6-sulfanylidene]carbamate], the pIC50 against CDK9/CycT1 is 8.30; against CDK2/CycE, 5.80; in assay [1] (Homo sapiens, HeLa), 6.21; in assay [2] (Homo sapiens, HeLa) it was 6.28; in assay [3] (setting [7]), 6.43; in assay [4] (setting [8]) it was 6.23. The pIC50 in assay [5] (setting [9]) and in assay [6] (setting [10]) was 6.17 each time.

Turning to `CS(=N)(=O)Cc1cccc(Nc2ncnc(-c3ccc(F)cc3OCc3ccnc(F)c3)n2)c1` (single isomer, unassigned) [Example 83, 4-{4-Fluoro-2-[(2-fluoropyridin-4-yl)methoxy]phenyl}-N-{3-[(S-methylsulfonimidoyl)methyl]phenyl}-1,3,5-triazin-2-amine], the pIC50 is 8.70 against CDK9/CycT1; 6.57 against CDK2/CycE; 6.96 in assay [1] (Homo sapiens, HeLa); 6.19 in assay [2] (Homo sapiens, HeLa); 6.74 in assay [3] (setting [7]); 6.74 in assay [4] (setting [8]). Further, the pIC50 in assay [5] (setting [9]) was 6.68; in assay [6] (setting [10]), 6.66.

For `C=C(C)COc1cc(F)ccc1-c1ncnc(Nc2cccc(CS(C)(=N)=O)c2)n1` (racemic) [Example 99, (rac)-4-{4-Fluoro-2-[(2-methylprop-2-en-1-yl)oxy]phenyl}-N-{3-[(S-methylsulfonimidoyl)methyl]phenyl}-1,3,5-triazin-2-amine], the pIC50 against CDK9/CycT1 is 8.70; on CDK2/CycE, 6.60; in assay [1] (Homo sapiens, HeLa) it was 6.92; in assay [2] (Homo sapiens, HeLa), 6.74; in assay [3] (setting [7]), 6.82; in assay [4] (setting [8]), 6.92. Also, the pIC50 in assay [5] (setting [9]) was 6.64; in assay [6] (setting [10]) it was 6.70.

Take `CS(=N)(=O)Cc1cccc(Nc2ncnc(-c3ccc(F)cc3OCc3ccnc(F)c3)n2)c1` (single isomer, unassigned) [Example 84, 4-{4-Fluoro-2-[(2-fluoropyridin-4-yl)methoxy]phenyl}-N-{3-[(S-methylsulfonimidoyl)methyl]phenyl}-1,3,5-triazin-2-amine]: the pIC50 on CDK9/CycT1 is 8.52; against CDK2/CycE, 6.66; in assay [1] it was 6.92; in assay [2] it was 6.47; in assay [3] (NCI-H460 cells), 6.74; in assay [4] (DU145 cells), 6.74. Further, the values for the pIC50 in assay [5] (Caco-2 cells) and in assay [6] (B16F10 cells) were 6.74 and 6.68, respectively.

Regarding `CS(=N)(=O)Cc1cccc(Nc2ncnc(-c3ccc(F)cc3OCc3ccncc3)n2)c1` (racemic) [Example 68, (rac)-4-[4-Fluoro-2-(pyridin-4-ylmethoxy)phenyl]-N-{3-[(S-methylsulfonimidoyl)methyl]phenyl}-1,3,5-triazin-2-amine], the pIC50 is 7.85 against CDK9/CycT1; 5.82 on CDK2/CycE; 6.39 in assay [1] (Homo sapiens, HeLa); 5.52 in assay [2] (Homo sapiens, HeLa); 5.96 in assay [3] (setting [7]); 6.34 in assay [4] (setting [8]). The pIC50 in assay [5] (setting [9]) is 5.89; in assay [6] (setting [10]), 6.13.
